From PubChem BioAssay AID180 (DTP/NCI, 2004)
Values joined by “and” are separate entries in the source; they are usually repeats but may differ in a detail not shown here. Equal values may be shown once.

Test system: BDF1 mice, Adenocarcinoma 755 s.c., tumor weight T/C
Experiment: NCI In Vivo Anticancer Drug Screen. Data for tumor model Adenocarcinoma 755 (subcutaneous) in B6D2F1 (BDF1) mice
Settings: endpoint: mean tumor weight, higher = larger tumour
How it was run: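 In vivo antitumor screen on a transplantable tumor line. Result equals the measure in compound-treated animals divided by the same measure in vehicle controls.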

[1] = dose: 6.25 mg/kg/injection, schedule: Q01DX011 (ip), vehicle: saline
[2] = dose: 30.0 mg/kg/injection, schedule: Q01DX011 (ip), vehicle: carboxymethylcellulose (CMC)
[3] = dose: 225.0 mg/kg/injection, schedule: Q01DX011 (ip), vehicle: saline
[4] = dose: 25.0 mg/kg/injection, schedule: Q01DX011 (ip), vehicle: saline

S=P(N1CCCCCC1)(N1CC1)N1CC1 was tested, and the T/C (dose: 1.0 mg/kg/injection, schedule: Q01DX011 (ip), vehicle: carboxymethylcellulose (CMC)) was 92 % of control, the T/C (dose: 1.75 mg/kg/injection, schedule: Q01DX011 (ip), vehicle: saline) was 58 % of control and the T/C (dose: 2.0 mg/kg/injection, schedule: Q01DX011 (ip), vehicle: carboxymethylcellulose (CMC)) was 90 % of control. The T/C (dose: 3.13 mg/kg/injection, schedule: Q01DX011 (ip), vehicle: saline) was 68 % of control, the T/C (dose: 3.5 mg/kg/injection, schedule: Q01DX011 (ip), vehicle: saline) was 70 % of control and the T/C (dose: 4.0 mg/kg/injection, schedule: Q01DX011 (ip), vehicle: carboxymethylcellulose (CMC)) was 38 % of control. The T/C [1] was 26 % of control and 50 % of control, the T/C (dose: 6.75 mg/kg/injection, schedule: Q01DX011 (ip), vehicle: methylcellulose (MC)) was 36 % of control and the T/C (dose: 7.0 mg/kg/injection, schedule: Q01DX011 (ip), vehicle: saline) was 42 % of control. The T/C (dose: 7.5 mg/kg/injection, schedule: Q01DX011 (ip), vehicle: carboxymethylcellulose (CMC)) was 96 % of control, the T/C (dose: 8.0 mg/kg/injection, schedule: Q01DX011 (ip), vehicle: carboxymethylcellulose (CMC)) was 23 % of control and the T/C (dose: 13.5 mg/kg/injection, schedule: Q01DX011 (ip), vehicle: methylcellulose (MC)) was 33 % of control. For the same compound, the T/C (dose: 13.5 mg/kg/injection, schedule: Q01DX011 (ip), vehicle: saline) was 29 % of control, the T/C (dose: 14.0 mg/kg/injection, schedule: Q01DX011 (ip), vehicle: saline) was 5 % of control and the T/C (dose: 15.0 mg/kg/injection, schedule: Q01DX011 (ip), vehicle: carboxymethylcellulose (CMC)) was 43 % of control. For the same compound, the T/C (dose: 16.0 mg/kg/injection, schedule: Q01DX011 (ip), vehicle: carboxymethylcellulose (CMC)) was 6 % of control, the T/C (dose: 27.0 mg/kg/injection, schedule: Q01DX011 (ip), vehicle: saline) was 25 % of control and the T/C [2] was 10 % of control. For the same compound, the T/C (dose: 54.0 mg/kg/injection, schedule: Q01DX011 (ip), vehicle: saline) was 24 % of control.

For CC1CN1P(=O)(OCCC#N)N1CC1C (centres undefined), the T/C (dose: 28.0 mg/kg/injection, schedule: Q01DX011 (ip), vehicle: saline) was 90 % of control, the T/C (dose: 56.0 mg/kg/injection, schedule: Q01DX011 (ip), vehicle: saline) was 104 % of control and the T/C (dose: 113.0 mg/kg/injection, schedule: Q01DX011 (ip), vehicle: saline) was 77 % of control. The T/C [3] was 10 % of control.

In the case of CC(=O)OCC(=O)[C@@]1(O)CC[C@H]2[C@@H]3CCC4=CC(=O)C=C[C@]4(C)[C@@]3(F)[C@@H](O)C[C@@]21C, the T/C (dose: 0.07 mg/kg/injection, schedule: Q01DX011 (sc), vehicle: steriod suspending solution) is reported as 90 % of control, the T/C (dose: 0.14 mg/kg/injection, schedule: Q01DX011 (sc), vehicle: steriod suspending solution) is reported as 77 % of control and the T/C (dose: 0.28 mg/kg/injection, schedule: Q01DX011 (sc), vehicle: steriod suspending solution) is reported as 41 % of control. For the same compound, the T/C (dose: 1.12 mg/kg/injection, schedule: Q01DX011 (sc), vehicle: steriod suspending solution) was 54 % of control, the T/C (dose: 2.25 mg/kg/injection, schedule: Q01DX011 (sc), vehicle: steriod suspending solution) was 38 % of control and the T/C (dose: 4.5 mg/kg/injection, schedule: Q01DX011 (sc), vehicle: steriod suspending solution) was 26 % of control and 38 % of control. For the same compound, the T/C (dose: 9.0 mg/kg/injection, schedule: Q01DX011 (sc), vehicle: steriod suspending solution) was 21 % of control, the T/C (dose: 18.0 mg/kg/injection, schedule: Q01DX011 (sc), vehicle: steriod suspending solution) was 17 % of control and the T/C (dose: 24.0 mg/kg/injection, schedule: Q01DX011 (sc), vehicle: steriod suspending solution) was 9 % of control and 23 % of control. For the same compound, the T/C (dose: 25.0 mg/kg/injection, schedule: Q01DX011 (sc), vehicle: steriod suspending solution) was 23 % of control and 28 % of control, the T/C (dose: 36.0 mg/kg/injection, schedule: Q01DX011 (sc), vehicle: steriod suspending solution) was 11 % of control and the T/C (dose: 50.0 mg/kg/injection, schedule: Q01DX011 (sc), vehicle: steriod suspending solution) was 13 % of control and 24 % of control. For the same compound, the T/C (dose: 100.0 mg/kg/injection, schedule: Q01DX011 (sc), vehicle: steriod suspending solution) was 9 % of control and 11 % of control.

O=P1(N(CCCl)CCCl)NCCCO1 (centres undefined) was tested, and the T/C [1] was 87 % of control, the T/C (dose: 7.13 mg/kg/injection, schedule: Q01DX011 (ip), vehicle: carboxymethylcellulose (CMC)) was 59 % of control and the T/C (dose: 7.66 mg/kg/injection, schedule: Q01DX011 (ip), vehicle: carboxymethylcellulose (CMC)) was 92 % of control. The T/C (dose: 10.22 mg/kg/injection, schedule: Q01DX011 (ip), vehicle: carboxymethylcellulose (CMC)) was 92 % of control, the T/C (dose: 11.4 mg/kg/injection, schedule: Q01DX011 (ip), vehicle: carboxymethylcellulose (CMC)) was 46 % of control and the T/C (dose: 12.25 mg/kg/injection, schedule: Q01DX011 (ip), vehicle: carboxymethylcellulose (CMC)) was 52 % of control. The T/C (dose: 12.5 mg/kg/injection, schedule: Q01DX011 (ip), vehicle: carboxymethylcellulose (CMC)) was 57 % of control, the T/C (dose: 12.5 mg/kg/injection, schedule: Q01DX011 (ip), vehicle: saline) was 36 % of control and 60 % of control and the T/C (dose: 14.25 mg/kg/injection, schedule: Q01DX011 (ip), vehicle: carboxymethylcellulose (CMC)) was 22 % of control and 29 % of control. The T/C (dose: 19.0 mg/kg/injection, schedule: Q01DX011 (ip), vehicle: carboxymethylcellulose (CMC)) was 22 % of control, the T/C (dose: 20.43 mg/kg/injection, schedule: Q01DX011 (ip), vehicle: carboxymethylcellulose (CMC)) was 66 % of control and the T/C (dose: 25.0 mg/kg/injection, schedule: Q01DX011 (ip), vehicle: carboxymethylcellulose (CMC)) was 8 % of control. The T/C [4] was 30 % of control and 55 % of control, the T/C (dose: 28.5 mg/kg/injection, schedule: Q01DX011 (ip), vehicle: carboxymethylcellulose (CMC)) was 4 % of control and 15 % of control and the T/C (dose: 30.65 mg/kg/injection, schedule: Q01DX011 (ip), vehicle: carboxymethylcellulose (CMC)) was 6 % of control and 29 % of control. The T/C (dose: 50.0 mg/kg/injection, schedule: Q01DX011 (ip), vehicle: saline) was 8 % of control and 17 % of control, the T/C (dose: 57.0 mg/kg/injection, schedule: Q01DX011 (ip), vehicle: carboxymethylcellulose (CMC)) was 3 % of control and the T/C (dose: 61.3 mg/kg/injection, schedule: Q01DX011 (ip), vehicle: carboxymethylcellulose (CMC)) was 5 % of control.

With O=C1C(Cl)=C(Cl)C(=O)C2=C1C1c3ccccc3C2c2ccccc21 the T/C (dose: 37.0 mg/kg/injection, schedule: Q01DX011 (ip), vehicle: carboxymethylcellulose (CMC)) was 83 % of control, the T/C (dose: 37.5 mg/kg/injection, schedule: Q01DX011 (ip), vehicle: carboxymethylcellulose (CMC)) was 117 % of control and the T/C (dose: 75.0 mg/kg/injection, schedule: Q01DX011 (ip), vehicle: carboxymethylcellulose (CMC)) was 113 % of control and 114 % of control. For the same compound, the T/C (dose: 150.0 mg/kg/injection, schedule: Q01DX011 (ip), vehicle: carboxymethylcellulose (CMC)) was 89 % of control and 84 % of control, the T/C (dose: 300.0 mg/kg/injection, schedule: Q01DX011 (ip), vehicle: carboxymethylcellulose (CMC)) was 83 % of control and the T/C (dose: 325.0 mg/kg/injection, schedule: Q01DX011 (ip), vehicle: carboxymethylcellulose (CMC)) was 41 % of control. The T/C (dose: 400.0 mg/kg/injection, schedule: Q01DX011 (ip), vehicle: carboxymethylcellulose (CMC)) was 33 % of control and the T/C (dose: 600.0 mg/kg/injection, schedule: Q01DX011 (ip), vehicle: carboxymethylcellulose (CMC)) was 15 % of control.

CSc1nc(Cl)cc2nc(Cl)cn12 was tested, and the T/C [2] was 110 % of control and the T/C (dose: 60.0 mg/kg/injection, schedule: Q01DX011 (ip), vehicle: carboxymethylcellulose (CMC)) was 111 % of control.

For Cn1ncc2c(NCc3ccccc3)ncnc21, the T/C (dose: 5.0 mg/kg/injection, schedule: Q01DX011 (ip), vehicle: carboxymethylcellulose (CMC)) was 62 % of control and 66 % of control and 71 % of control, the T/C (dose: 10.0 mg/kg/injection, schedule: Q01DX011 (ip), vehicle: carboxymethylcellulose (CMC)) was 43 % of control and 58 % of control and 60 % of control and the T/C (dose: 20.0 mg/kg/injection, schedule: Q01DX011 (ip), vehicle: carboxymethylcellulose (CMC)) was 5 % of control and 24 % of control and 29 % of control.

With Nc1nc(SCc2ccc(Br)cc2)c2ncn(C3OC(CO)C(O)C3O)c2n1 (centres undefined) the T/C (dose: 6.0 mg/kg/injection, schedule: Q01DX011 (ip), vehicle: methylcellulose (MC)) was 80 % of control, the T/C (dose: 25.0 mg/kg/injection, schedule: Q01DX011 (ip), vehicle: methylcellulose (MC)) was 32 % of control and the T/C (dose: 30.0 mg/kg/injection, schedule: Q01DX011 (ip), vehicle: methylcellulose (MC)) was 41 % of control. The T/C (dose: 75.0 mg/kg/injection, schedule: Q01DX011 (ip), vehicle: methylcellulose (MC)) was 5 % of control.

For [O-][N+](CCO)(CCO)c1ncnc2nc[nH]c12, the T/C [4] was 121 % of control, the T/C (dose: 75.0 mg/kg/injection, schedule: Q01DX011 (ip), vehicle: saline) was 72 % of control and the T/C [3] was 82 % of control.
